According to ChEMBL document CHEMBL1201862, “PubChem BioAssay data set” (2004):
Active and inactive are the calls of the source.

Assays:
[1] = biological target: Tyrosyl-DNA phosphodiesterase 2 (Homo sapiens, UniProt O95551); assay: human TDP2 enzyme inhibitors, dose response, biochemical, epi absorbance, IC50 (AID 743297)
[2] = biological target: Photoreceptor-specific nuclear receptor (Homo sapiens, UniProt Q9Y5X4); format: functional, cell-based;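 also: CHO-S cells with Gal4-NCOR and VP16-NR2E3 two-hybrid luciferase reporter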
Photoreceptor-specific nuclear receptor, sequence (Q9Y5X4 whole entry, the tested form may be a part): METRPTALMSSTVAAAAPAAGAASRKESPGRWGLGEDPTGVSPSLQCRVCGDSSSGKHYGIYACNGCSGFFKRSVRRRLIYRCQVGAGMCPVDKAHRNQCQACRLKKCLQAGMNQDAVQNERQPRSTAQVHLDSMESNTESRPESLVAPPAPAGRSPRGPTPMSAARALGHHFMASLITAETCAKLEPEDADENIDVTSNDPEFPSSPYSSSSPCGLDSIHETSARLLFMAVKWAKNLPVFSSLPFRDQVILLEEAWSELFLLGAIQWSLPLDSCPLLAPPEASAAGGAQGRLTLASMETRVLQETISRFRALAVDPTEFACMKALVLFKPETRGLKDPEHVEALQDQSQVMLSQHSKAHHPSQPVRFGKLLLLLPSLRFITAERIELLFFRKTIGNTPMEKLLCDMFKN

[3] = biological target: T1, Apoptotic protease-activating factor 1 (Homo sapiens, UniProt O14727); format: functional
T1 sequence (O14727 whole entry): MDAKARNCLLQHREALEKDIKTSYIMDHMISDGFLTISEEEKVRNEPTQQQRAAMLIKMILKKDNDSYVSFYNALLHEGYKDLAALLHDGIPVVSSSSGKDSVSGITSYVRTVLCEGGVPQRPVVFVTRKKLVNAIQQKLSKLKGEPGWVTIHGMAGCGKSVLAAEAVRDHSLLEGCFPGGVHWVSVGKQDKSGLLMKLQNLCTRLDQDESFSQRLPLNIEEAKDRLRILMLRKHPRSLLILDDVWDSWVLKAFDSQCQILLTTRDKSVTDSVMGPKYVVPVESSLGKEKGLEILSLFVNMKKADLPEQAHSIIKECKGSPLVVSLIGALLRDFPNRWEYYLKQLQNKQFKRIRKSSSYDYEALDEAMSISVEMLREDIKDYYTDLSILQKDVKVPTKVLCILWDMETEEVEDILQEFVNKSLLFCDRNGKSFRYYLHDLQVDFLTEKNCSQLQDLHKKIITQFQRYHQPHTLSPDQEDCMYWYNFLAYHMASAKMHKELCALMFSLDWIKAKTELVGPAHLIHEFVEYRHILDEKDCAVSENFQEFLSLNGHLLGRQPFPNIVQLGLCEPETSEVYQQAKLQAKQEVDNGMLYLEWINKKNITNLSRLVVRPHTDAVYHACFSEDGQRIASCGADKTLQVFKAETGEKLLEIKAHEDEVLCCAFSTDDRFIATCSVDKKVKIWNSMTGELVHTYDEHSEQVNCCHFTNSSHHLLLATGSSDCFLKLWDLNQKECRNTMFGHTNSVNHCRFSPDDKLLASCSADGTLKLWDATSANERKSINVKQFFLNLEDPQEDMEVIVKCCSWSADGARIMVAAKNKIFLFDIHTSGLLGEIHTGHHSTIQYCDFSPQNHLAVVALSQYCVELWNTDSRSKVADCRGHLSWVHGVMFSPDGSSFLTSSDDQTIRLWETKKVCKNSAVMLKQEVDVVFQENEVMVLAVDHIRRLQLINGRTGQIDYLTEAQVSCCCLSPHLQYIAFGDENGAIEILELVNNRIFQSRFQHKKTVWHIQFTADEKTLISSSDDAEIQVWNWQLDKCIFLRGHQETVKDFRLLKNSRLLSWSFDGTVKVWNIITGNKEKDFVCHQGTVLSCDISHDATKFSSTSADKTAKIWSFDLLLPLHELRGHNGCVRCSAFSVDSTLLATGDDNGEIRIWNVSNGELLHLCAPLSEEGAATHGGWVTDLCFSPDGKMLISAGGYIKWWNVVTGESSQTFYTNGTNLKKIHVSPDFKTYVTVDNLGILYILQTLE

[4] = biological target: T2, Hexokinase HKDC1 (Homo sapiens, UniProt Q2TB90); assay: HKDC1 hexokinase inhibitors, dose response, biochemical, W721R variant (AID 504729); format: functional
T2 sequence (Q2TB90 whole entry): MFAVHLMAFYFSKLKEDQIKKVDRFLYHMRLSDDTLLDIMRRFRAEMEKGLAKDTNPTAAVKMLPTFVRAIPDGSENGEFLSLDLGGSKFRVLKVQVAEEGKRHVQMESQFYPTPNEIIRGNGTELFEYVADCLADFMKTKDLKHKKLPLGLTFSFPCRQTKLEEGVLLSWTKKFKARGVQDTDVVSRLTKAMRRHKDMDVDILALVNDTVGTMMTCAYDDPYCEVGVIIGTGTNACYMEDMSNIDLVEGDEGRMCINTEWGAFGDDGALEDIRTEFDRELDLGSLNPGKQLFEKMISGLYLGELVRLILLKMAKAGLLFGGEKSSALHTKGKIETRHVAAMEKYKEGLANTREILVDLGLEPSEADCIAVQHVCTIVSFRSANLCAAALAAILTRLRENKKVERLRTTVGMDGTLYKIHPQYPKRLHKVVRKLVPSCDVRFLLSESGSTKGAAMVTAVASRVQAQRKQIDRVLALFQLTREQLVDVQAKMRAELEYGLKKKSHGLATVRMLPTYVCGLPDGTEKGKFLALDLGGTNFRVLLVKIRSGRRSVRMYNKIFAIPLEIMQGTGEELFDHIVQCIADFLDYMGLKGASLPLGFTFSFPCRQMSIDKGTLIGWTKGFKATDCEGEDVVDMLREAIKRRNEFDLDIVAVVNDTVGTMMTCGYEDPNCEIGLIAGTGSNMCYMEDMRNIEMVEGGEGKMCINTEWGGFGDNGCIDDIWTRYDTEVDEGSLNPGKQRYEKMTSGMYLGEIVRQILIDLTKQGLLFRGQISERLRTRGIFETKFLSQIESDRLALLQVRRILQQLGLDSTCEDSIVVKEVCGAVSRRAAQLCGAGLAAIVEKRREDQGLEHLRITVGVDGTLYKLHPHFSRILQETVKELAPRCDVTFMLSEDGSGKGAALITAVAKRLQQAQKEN

Tyrosyl-DNA phosphodiesterase 2, sequence (O95551 whole entry, the tested form may be a part): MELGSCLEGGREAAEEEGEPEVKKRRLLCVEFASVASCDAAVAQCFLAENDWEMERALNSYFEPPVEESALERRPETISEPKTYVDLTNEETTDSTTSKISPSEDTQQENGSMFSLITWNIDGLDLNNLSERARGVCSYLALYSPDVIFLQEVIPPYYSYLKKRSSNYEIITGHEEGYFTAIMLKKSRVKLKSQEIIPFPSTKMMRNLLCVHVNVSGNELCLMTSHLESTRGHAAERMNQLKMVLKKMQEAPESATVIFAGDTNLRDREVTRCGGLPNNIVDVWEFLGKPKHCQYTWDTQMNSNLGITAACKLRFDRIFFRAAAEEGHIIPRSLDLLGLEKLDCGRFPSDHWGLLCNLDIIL

Compound | IC50 [1] | IC50 [2] | IC50 [3] | IC50 [4]
Cc1ccc(NC2=CC(=O)C(=O)c3ccccc32)cc1 | 26.2 µM (inactive) |  |  | 
O=C(O)c1ccc(S(=O)(=O)/N=C2\C=C(Nc3ccccc3F)C(=O)c3ccccc32)cc1 |  | 12.2 µM (inactive) | 3 µM (active) | 3 µM (active)
